This note sets out measurements from patent publication US8835464B2, “Triazole compounds that modulate HSP90 activity” (Synta Pharmaceuticals Corp., priority 2006, dated 2014).

Where a name gives a salt, the structure may show the parent alone.

For one assay, the system named is Hsp90. The experiment in a line: IC50 of compounds of the invention, Example B Method 2 (Tables 6-9). The class given is cell-based, human. Particulars: Table 7; Her2 degradation / inhibition of Hsp90; Method 2: MV-4-11 cells, 72 hours, Cell Counting Kit-8; read-out: IC50.
Consider `CNc1nnc(-c2cc(C(C)C)c(O)cc2O)n1-c1ccc2c(ccn2C)c1` [Compound 2a, 4-Isopropyl-6-[4-(1-methyl-1H-indol-5-yl)-5-methylamino-4H-[1,2,4]triazol-3-yl]-benzene-1,3-diol], for which the IC50 is 3.5 µM.

`CC(C)c1cc(-c2nnc(NC(=O)COc3ccc(Cl)cc3)n2-c2ccc3c(ccn3C)c2)c(O)cc1O` [Compound 19a, 2-(4-chlorophenoxy)-N-(5-(2,4-dihydroxy-5-isopropylphenyl)-4-(1-methyl-1H-indol-5-yl)-4H-1,2,4-triazol-3-yl)acetamide]: the IC50 was 2.74 µM.

Consider `COCC(=O)Nc1nnc(-c2cc(C(C)C)c(O)cc2O)n1-c1ccc2c(ccn2C)c1` [Compound 13a, N-(5-(2,4-dihydroxy-5-isopropylphenyl)-4-(1-methyl-1H-indol-5-yl)-4H-1,2,4-triazol-3-yl)-2-methoxyacetamide], for which the IC50 stood at 1.8 µM.

On to `Cc1cc(C(=O)Nc2nnc(-c3cc(C(C)C)c(O)cc3O)n2-c2ccc3c(ccn3C)c2)no1` [Compound 10a, N-(5-(2,4-dihydroxy-5-isopropylphenyl)-4-(1-methyl-1H-indol-5-yl)-4H-1,2,4-triazol-3-yl)-5-methylisoxazole-3-carboxamide], for which the IC50 turned out to be 7.86 µM.

In the case of `CC(C)c1cc(-c2nnc(NCc3ccccc3)n2-c2ccc3c(ccn3C)c2)c(O)cc1O` [Compound 3a, 4-Isopropyl-6-[4-(1-methyl-1H-indol-5-yl)-5-benzylamino-4H-[1,2,4]triazol-3-yl]-benzene-1,3-diol], the IC50 is 35 µM.

Turning to `CC(=O)Nc1nnc(-c2cc(C(C)C)c(O)cc2O)n1-c1ccc2c(ccn2C)c1` [Compound 11a, N-(5-(2,4-dihydroxy-5-isopropylphenyl)-4-(1-methyl-1H-indol-5-yl)-4H-1,2,4-triazol-3-yl)acetamide], the IC50 was determined as 0.382 µM.

The same assay, now with this note: Table 8; Her2 degradation / inhibition of Hsp90; Method 2: MV-4-11 cells, 72 hours, Cell Counting Kit-8; read-out: IC50.
Consider `CC(C)c1cc(-c2nn(C(=O)C(N)Cc3ccccc3)c(=O)n2-c2ccc3c(ccn3C)c2)c(OC(=O)C(N)Cc2ccccc2)cc1OC(=O)C(N)Cc1ccccc1` (stereo not shown) [Compound 17b, 4-(1-(2-amino-3-phenylpropanoyl)-4-(1-methyl-1H-indol-5-yl)-5-oxo-4,5-dihydro-1H-1,2,4-triazol-3-yl)-6-isopropyl-1,3-phenylene bis(2-amino-3-phenylpropanoate) trihydrochloride], for which the half-maximal inhibitory concentration (IC50) turned out to be 0.046 µM.

With `CC(C)c1cc(-c2nnc(O)n2-c2ccc3c(ccn3C(=O)CCNC(=O)OC(C)(C)C)c2)c(O)cc1O` [Compound 10b, tert-butyl 3-(5-(3-(2,4-dihydroxy-5-isopropylphenyl)-5-hydroxy-4H-1,2,4-triazol-4-yl)-1H-indol-1-yl)-3-oxopropylcarbamate], the IC50 was below 0.11 µM.

In the case of `CC(C)c1cc(-c2nn(C(=O)CN)c(=O)n2-c2ccc3c(ccn3C)c2)c(OC(=O)CN)cc1OC(=O)CN` [Compound 15b, 4-(1-(2-aminoacetyl)-4-(1-methyl-1H-indol-5-yl)-5-oxo-4,5-dihydro-1H-1,2,4-triazol-3-yl)-6-isopropyl-1,3-phenylene bis(2-aminoacetate) trihydrochloride], the IC50 was 0.079 µM.

For `CC(=O)n1ccc2cc(-n3c(O)nnc3-c3cc(C(C)C)c(O)cc3O)ccc21` [Compound 9b, 1-(5-(3-(2,4-dihydroxy-5-isopropylphenyl)-5-hydroxy-4H-1,2,4-triazol-4-yl)-1H-indol-1-yl)ethanone], the IC50 came out at 0.04 µM.

`CCc1cc(-c2nnc(S)n2-c2cccc3ccccc23)c(OC(=O)C(C)(C)C)cc1OC(=O)C(C)(C)C` [Compound 3b, 4-ethyl-6-(5-mercapto-4-(naphthalen-1-yl)-4H-1,2,4-triazol-3-yl)-1,3-phenylene bis(2,2-dimethylpropanoate)]: the IC50 is above 2 µM.

Still in this assay, the particulars now being: Table 9; Her2 degradation / inhibition of Hsp90; Method 2: MV-4-11 cells, 72 hours, Cell Counting Kit-8; dihydrochloride; read-out: IC50 Range.
On to `CC(C)c1cc(-c2nnc(O)n2-c2ccc(N(C)C)nc2)c(O)cc1O` [Compound 7d, 4-(4-(6-(dimethylamino)pyridin-3-yl)-5-hydroxy-4H-1,2,4-triazol-3-yl)-6-isopropylbenzene-1,3-diol dihydrochloride], for which the IC50 is 0.047 µM.

Still in this assay, the particulars now being: Table 9; Her2 degradation / inhibition of Hsp90; Method 2: MV-4-11 cells, 72 hours, Cell Counting Kit-8; read-out: IC50 Range.
As to `CC(C)c1cc(-c2nnc(O)n2-c2ccc(N(C)CC(=O)O)nc2)c(O)cc1O` [Compound 4d, 2-(N-(5-(3-(2,4-dihydroxy-5-isopropylphenyl)-5-oxo-1H-1,2,4-triazol-4(5H)-yl)pyridin-2-yl)-N-methylamino)acetic acid], the IC50 was found to be 0.33 µM.

On to `CC(C)c1cc(-c2nnc(O)n2-c2ccc(OCCN3CCOCC3)nc2)c(O)cc1O` [Compound 20d, 4-(5-hydroxy-4-(6-(2-morpholinoethoxy)pyridin-3-yl)-4H-1,2,4-triazol-3-yl)-6-isopropylbenzene-1,3-diol], for which the IC50 is 0.114 µM.

Turning to `COCCN(C)c1ccc(-n2c(O)nnc2-c2cc(C(C)C)c(O)cc2O)cn1` [Compound 1d, 4-(4-(6-(N-(2-methoxyethyl)-N-methylamino)pyridin-3-yl)-5-hydroxy-4H-1,2,4-triazol-3-yl)-6-isopropylbenzene-1,3-diol], the IC50 turned out to be 0.03 µM.

The next assay has as its system Her2. The experiment in a line: Degradation of Her2 in BT-474 cells, Western blot (Method 1). It counts as cell-based, human. The note with it: 0.5 μM, overnight, positive control. The procedure:
Human high-Her2 breast carcinoma BT474 (HTB-20), SK-BR-3 (HTB-30) and MCF-7 breast carcinoma (HTB-22) from American Type Culture Collection, VA, USA were grown in Dulbecco's modified Eagle's medium with 4 mM L-glutamine and antibiotics ([…] penicillin and 100 ug/ml streptomycine; GibcoBRL). To obtain exponential cell growth, cells were trypsinized, counted and seeded at a cell density of 0.5×10^6 cells/ml regularly, every 3 days. All experiments were performed on day 1 after cell passage.
BT-474 cells are treated with 0.5 μM, 2 μM, or 5 μM of 17AAG (a positive control) or 0.5 μM, 2 μM, or 5 μM of a compound of the invention overnight in DMEM medium. After treatment, each cytoplasmic sample is prepared from 1×10^6 cells by incubation of cell lysis buffer (#9803, cell Signaling Technology) on ice for 10 minutes. The resulting supernatant used as the cytosol fractions is dissolved with sample buffer for SDS-PAGE and run on a SDS-PAGE gel, blotted onto a nitrocellulose membrane by using semi-dry transfer. Non-specific binding to nitrocellulose is blocked with 5% skim milk in TBS with 0.5% Tween at room temperature for 1 hour, then probed with anti-Her2/ErB2 mAb (rabbit IgG, #2242, Cell Signaling) and anti-Tubulin (T9026, Sigma) as housekeeping control protein. […]
Take `C=CCNC1=C2C[C@@H](C)C[C@H](OC)[C@H](O)[C@@H](C)/C=C(\C)[C@H](OC(N)=O)[C@@H](OC)/C=C\C=C(/C)C(=O)NC(=CC1=O)C2=O` [Compound 17AAG, 17-allylamino-17-demethoxygeldanamycin]: the “degradation of Her2” value is “partial degradation”.
